Experiments:
[1] = tested on: CHO-K1 control cells; assay: Erk phosphorylation in CHO-K1 control cells transfected with empty pEFIN5 vector; assay type: cell-based; details: 1 μM; 5 min, 20 min or 1 h
[2] = molecular target: T1, GPR86 (P2Y13) human receptor (Homo sapiens, UniProt Q9BPV8, T179M); assay: Western blot of phosphorylated Erk1 and Erk2 in GPR86-transfected CHO-K1 cells; assay type: cell-based; set-up: expressed in transfected cells; details: for Erk phosphorylation / time of stimulation giving maximal Erk phosphorylation response: 1 μM; for concentration at which a significant effect on Erk phosphorylation was already observed / concentration giving maximal effect on Erk phosphorylation: 5 min stimulation; for concentration giving maximal effect on Erk phosphorylation: 1 nM to 10 μM tested
T1 sequence (Q9BPV8 22-354 T179M): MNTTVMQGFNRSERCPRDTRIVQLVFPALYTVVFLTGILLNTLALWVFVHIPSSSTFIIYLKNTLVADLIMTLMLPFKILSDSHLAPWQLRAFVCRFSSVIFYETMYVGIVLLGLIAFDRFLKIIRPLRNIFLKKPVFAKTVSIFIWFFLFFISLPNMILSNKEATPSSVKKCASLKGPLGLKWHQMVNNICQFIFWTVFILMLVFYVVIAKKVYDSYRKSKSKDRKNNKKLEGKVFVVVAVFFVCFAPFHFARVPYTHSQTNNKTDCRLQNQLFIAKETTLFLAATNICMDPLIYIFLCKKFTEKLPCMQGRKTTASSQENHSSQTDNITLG
Protocol: To investigate changes in the activation status of the MAP kinases Erk1 and Erk2 upon stimulation of the human GPR86 receptor, whole CHO-K1 transfected cell extracts were analysed by Western blotting using a specific antibody for the dually phosphorylated kinases (at Thr^202 and Tyr^204), which are the active forms of Erk. Western Blot Analysis of phosphorylated Erk1 and Erk2 proteins.
GPR86-transfected CHO-K1 cells were seeded at 1.5×10^6 cells/dish. After 24 h, the cells were serum-starved for 2 h in KRH buffer. After stimulation with the agonist, the cells were scraped in 1 ml of PBS pH 7.3 (137 mM NaCl, 2.7 mM KCl, 4.3 mM Na2HPO4.7H2O and 1.4 mM KH2PO4). The cells were recovered by centrifugation and lysed in 150 μl of Laemmli buffer (10% (w/v) glycerol, 5% (v/v) mercaptoethanol, 2.3% (w/v) SDS, 62.5 mM Tris-HCl pH 6.8). The protein concentration was determined using the method of Minamide and Bamburg (27). The same amount of protein for each condition was electrophoresed in a 12% SDS-polyacrylamide gel. Proteins were then transferred overnight at 60 V and 4° C. onto a nitrocellulose membrane using 20 mM Tris, 154 mM glycine, 20% (v/v) methanol as a transfer buffer. Immunodetection was achieved using the enhanced chemiluminescence Western blotting detection system (ECL, Amersham Phammacia Biotech) using a biotinylated-secondary mouse antibody ( 1/25,000). The monoclonal antibody specific for the dually phosphorylated forms of Erk1 and Erk2 (at Thr^202 and Tyr^204) was used at 1/1000-dilution.
In CHO-K1 cells, phosphorylated Erk1 and Erk2 had the predicted molecular mass of 44 and 42 kDa, respectively. […] GPR86-transfected CHO-K1 cells were stimulated during different times or with various concentrations of ADP and 2MeSADP or water (CONT). The effect of 100 ng/ml pertussis toxin (PTx) has been tested at 5 and 30 min in the presence of 1 μM ADP or 2MeSADP. Blotting and immunodetection were achieved as described using the enhanced chemiluminescence Western blotting detection system (ECL, Amersham Pharmacia Biotech).

Compound	Erk1 or Erk2 phosphorylation [1]	Erk phosphorylation [2]	time of stimulation giving maximal Erk phosphorylation response [2] [min]	concentration at which a significant effect on Erk phosphorylation was already observed [2] [nM]	concentration giving maximal effect on Erk phosphorylation [2] [µM]
Nc1ncnc2c1ncn2[C@@H]1O[C@H](COP(=O)(O)OP(=O)(O)O)[C@@H](O)[C@H]1O [ADP]	not observed	strong phosphorylation of Erk2	5	10	1
CSc1nc(N)c2ncn([C@@H]3O[C@H](COP(=O)(O)OP(=O)(O)O)[C@@H](O)[C@H]3O)c2n1 [2MeSADP, 2-methylthio-ADP]	not observed	strong phosphorylation of Erk2	5	10	1
